Read-outs that look alike come from different tables or passages of the source.
How the values were obtained:
[1] = tested on: pulmonary hemorrhage; experiment: pulmonary hemorrhage in mice under reduced pressure (scoring method; vascular stabilizing effect); format: in vivo; conditions: Mus musculus, reduced pressure of 50 ± 0.5 mm Hg/15 sec
[2] = tested on: bleeding from the amputated tail end; experiment: hemostatic effect, Motohashi et al. model: time until bleeding from amputated mouse tail tip in water is completely stopped; format: in vivo; conditions: mice, tail tip amputation

CN1C2=CC(=O)C(=NNC(N)=O)C=C2CC1S(=O)(=O)O (stereo not drawn) [Carbazochrome sodium sulfonate]
ED50 ([1]; ip, read-out: ED50 i.p. (pulmonary hemorrhage)): 112 mg/kg
ED50 ([1]; iv, read-out: ED50 i.v. (pulmonary hemorrhage)): 80 mg/kg
ED50 ([1]; po, read-out: ED50 p.o. (pulmonary hemorrhage)): 400 mg/kg
ED50 ([2]; ip, read-out: ED50 i.p. (hemostatic effect)): 5.4 mg/kg
ED50 ([2]; iv, read-out: ED50 i.v. (hemostatic effect)): 3.6 mg/kg
ED50 ([2]; po, read-out: ED50 p.o. (hemostatic effect)): 36 mg/kg

— patent publication US4112218A, “Method of preparing sterol glycosides from plants” (Nippon Shinyaku Co., Ltd., priority 1976, dated 1978)
